Article PMC4784480 (FEBS letters, 2010)

Target: T1, Type II NADH dehydrogenase (Plasmodium falciparum, UniProt Q8I302)
T1 sequence (Q8I302 24-533): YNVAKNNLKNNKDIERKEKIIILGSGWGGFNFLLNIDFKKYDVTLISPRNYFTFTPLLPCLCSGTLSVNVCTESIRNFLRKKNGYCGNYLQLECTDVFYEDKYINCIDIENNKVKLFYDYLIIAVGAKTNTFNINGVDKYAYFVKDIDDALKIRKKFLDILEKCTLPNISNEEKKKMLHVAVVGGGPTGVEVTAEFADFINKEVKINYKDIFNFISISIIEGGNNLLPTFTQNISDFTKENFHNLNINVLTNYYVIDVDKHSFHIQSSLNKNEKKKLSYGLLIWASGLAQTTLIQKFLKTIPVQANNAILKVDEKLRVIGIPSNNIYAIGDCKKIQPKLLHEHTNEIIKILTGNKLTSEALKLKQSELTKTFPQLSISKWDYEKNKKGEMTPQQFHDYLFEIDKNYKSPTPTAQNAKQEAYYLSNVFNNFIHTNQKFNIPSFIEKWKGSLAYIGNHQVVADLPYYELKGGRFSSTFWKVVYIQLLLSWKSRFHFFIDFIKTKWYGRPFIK
Experiment: NADH oxidation at […] nm, parasite cell-free extract
Format: biochemical
Conditions: concentration not given

Structure (SMILES) | NADH oxidation at 340 nm, parasite cell-free extract (inhibitor of MQ-4-dependent NADH oxidation) | NADH oxidation at 340 nm, parasite cell-free extract (electron acceptor with NADH)
c1ccc2c(c1)[I+]c1ccccc1-2 [DPI, diphenylene iodonium chloride] | sensitive to diphenylene iodonium chloride (DPI), a classical Type II NADH:dehydrogenase inhibitor | 
CCCCCCCCCCC1=C(C)C(=O)C(OC)=C(OC)C1=O [decylubiquinone] |  | Without MQ-4 or decylubiquinone addition no NADH oxidation was observed
